Laboratory results as given in ChEMBL document CHEMBL1135342, “Synthesis and evaluation of thymidine-5'-O-monophosphate analogues as inhibitors of Mycobacterium tuberculosis thymidylate kinase” (Bioorg Med Chem Lett, 2002).

Molecular target: T1, Thymidylate kinase (Mycobacterium tuberculosis) (UniProt P9WKE1)
T1 sequence (whole entry): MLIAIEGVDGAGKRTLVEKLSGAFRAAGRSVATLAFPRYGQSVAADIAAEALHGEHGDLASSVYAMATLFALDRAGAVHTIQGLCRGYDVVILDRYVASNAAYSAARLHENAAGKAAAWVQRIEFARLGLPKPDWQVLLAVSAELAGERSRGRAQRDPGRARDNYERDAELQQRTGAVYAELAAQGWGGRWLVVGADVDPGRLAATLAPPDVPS
Assay: Enzyme Kinetic constant was determined in the presence of Mycobacterium tuberculosis thymidine monophosphate kinase

`O=c1[nH]c(=O)n([C@H]2C[C@H](O)[C@@H](COP(=O)(O)O)O2)cc1F` was tested. Which Vm (uM min-1 (mg of protein)-1) did it give?
The Vm (uM min-1 (mg of protein)-1) was 4.7.

Which Vm (uM min-1 (mg of protein)-1) does the source give for `O=c1ccn([C@H]2C[C@H](O)[C@@H](COP(=O)(O)O)O2)c(=O)[nH]1` here?
Its Vm (uM min-1 (mg of protein)-1) is 3.5.

For `O=c1[nH]c(=O)n([C@H]2C[C@H](O)[C@@H](COP(=O)(O)O)O2)cc1Br`, which Vm (uM min-1 (mg of protein)-1) is on record?
The Vm (uM min-1 (mg of protein)-1) was 9.8.

Which Vm (uM min-1 (mg of protein)-1) does the source give for `O=c1[nH]c(=O)n([C@H]2C[C@H](O)[C@@H](COP(=O)(O)O)O2)cc1I` here?
The Vm (uM min-1 (mg of protein)-1) was 7.5.

For `Cc1cn(-c2ccc(COP(=O)(O)O)o2)c(=O)[nH]c1=O`, which Vm (uM min-1 (mg of protein)-1) is on record?
Its Vm (uM min-1 (mg of protein)-1) is 0.16.

How did the Vm (uM min-1 (mg of protein)-1) turn out when `Cc1cn([C@H]2C[C@H](O)[C@@H](COP(=O)(O)O)O2)c(=O)[nH]c1=O` was run?
The Vm (uM min-1 (mg of protein)-1) was 10.6.

For `Cc1cn([C@H]2C[C@H](F)[C@@H](COP(=O)(O)O)O2)c(=O)[nH]c1=O`, which Vm (uM min-1 (mg of protein)-1) is on record?
The Vm (uM min-1 (mg of protein)-1) was 0.11.
